# According to PubChem BioAssay (NCI):
#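 Compound exposure: 48 hours, 5 concentrations, 96-well plates. TGI: total growth inhibition.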
# Tests used:
# Assay in all cases: growth of human tumour cells (NCI), 48 h
# A549 NSCLC = system: A549 NSCLC
# SW-620 colon = system: SW-620 colon
# KM12 colon = system: KM12 colon
# HCC-2998 colon = system: HCC-2998 colon
# TK-10 renal = system: TK-10 renal
# HCT-15 colon = system: HCT-15 colon
# OVCAR-4 ovarian = system: OVCAR-4 ovarian
# SK-MEL-28 melanoma = system: SK-MEL-28 melanoma
# HS 578T breast = system: HS 578T breast
# 786-0 renal = system: 786-0 renal
# DU-145 prostate = system: DU-145 prostate
# MDA-MB-435 = system: MDA-MB-435
# BT-549 breast = system: BT-549 breast
# HT29 colon = system: HT29 colon
# PC-3 prostate = system: PC-3 prostate
# UACC-62 melanoma = system: UACC-62 melanoma
# U251 CNS = system: U251 CNS
# IGROV1 ovarian = system: IGROV1 ovarian
# SNB-75 CNS = system: SNB-75 CNS
# SK-MEL-2 melanoma = system: SK-MEL-2 melanoma
# MDA-N = system: MDA-N
# EKVX NSCLC = system: EKVX NSCLC
# NCI-H460 lung = system: NCI-H460 lung
# MCF7 breast = system: MCF7 breast
# HCT-116 colon = system: HCT-116 colon
# ACHN renal = system: ACHN renal
# SF-268 CNS = system: SF-268 CNS
# MDA-MB-231 breast = system: MDA-MB-231 breast
# CAKI-1 renal = system: CAKI-1 renal
# A498 renal = system: A498 renal
# RPMI-8226 leukemia = system: RPMI-8226 leukemia
# OVCAR-8 ovarian = system: OVCAR-8 ovarian
# LOX IMVI melanoma = system: LOX IMVI melanoma
# CCRF-CEM leukemia = system: CCRF-CEM leukemia
# COLO 205 colon = system: COLO 205 colon
# RXF 393 renal = system: RXF 393 renal
# SR leukemia = system: SR leukemia
# HOP-62 NSCLC = system: HOP-62 NSCLC
# SN12C renal = system: SN12C renal
# NCI-H226 lung = system: NCI-H226 lung
# MALME-3M melanoma = system: MALME-3M melanoma
# OVCAR-5 ovarian = system: OVCAR-5 ovarian
# M14 melanoma = system: M14 melanoma
# UO-31 renal = system: UO-31 renal
# NCI/ADR-RES ovarian = system: NCI/ADR-RES ovarian
# SK-OV-3 ovarian = system: SK-OV-3 ovarian
# SF-295 CNS = system: SF-295 CNS
# NCI-H522 lung = system: NCI-H522 lung
# SNB-19 CNS = system: SNB-19 CNS
# K-562 leukemia = system: K-562 leukemia
# SK-MEL-5 melanoma = system: SK-MEL-5 melanoma
# MOLT-4 leukemia = system: MOLT-4 leukemia
# OVCAR-3 ovarian = system: OVCAR-3 ovarian
# UACC-257 melanoma = system: UACC-257 melanoma
# T-47D breast = system: T-47D breast
# HOP-92 NSCLC = system: HOP-92 NSCLC
# SF-539 CNS = system: SF-539 CNS
# NCI-H23 lung = system: NCI-H23 lung
# HL-60(TB) leukemia = system: HL-60(TB) leukemia
smiles,measurement,setting,value
O=c1[nH]nc(-c2ccccc2)n1-n1cccc1,TGI,A549 NSCLC,> 100 µM
same,TGI,SW-620 colon,> 100 µM
same,TGI,KM12 colon,> 100 µM
same,TGI,HCC-2998 colon,> 100 µM
same,TGI,TK-10 renal,> 100 µM
same,TGI,HCT-15 colon,> 100 µM
same,TGI,OVCAR-4 ovarian,> 100 µM
same,TGI,SK-MEL-28 melanoma,> 100 µM
same,TGI,HS 578T breast,> 100 µM
same,TGI,786-0 renal,> 100 µM
same,TGI,DU-145 prostate,> 100 µM
same,TGI,MDA-MB-435,> 100 µM
same,TGI,BT-549 breast,> 100 µM
same,TGI,HT29 colon,> 100 µM
same,TGI,PC-3 prostate,> 100 µM
same,TGI,UACC-62 melanoma,> 100 µM
same,TGI,U251 CNS,> 100 µM
same,TGI,IGROV1 ovarian,> 100 µM
same,TGI,SNB-75 CNS,> 100 µM
same,TGI,SK-MEL-2 melanoma,> 100 µM
same,TGI,MDA-N,> 100 µM
same,TGI,EKVX NSCLC,> 100 µM
same,TGI,NCI-H460 lung,> 100 µM
same,TGI,MCF7 breast,> 100 µM
same,TGI,HCT-116 colon,> 100 µM
same,TGI,ACHN renal,> 100 µM
same,TGI,SF-268 CNS,> 100 µM
same,TGI,MDA-MB-231 breast,> 100 µM
same,TGI,CAKI-1 renal,> 100 µM
same,TGI,A498 renal,> 100 µM
same,TGI,RPMI-8226 leukemia,> 100 µM
same,TGI,OVCAR-8 ovarian,> 100 µM
same,TGI,LOX IMVI melanoma,> 100 µM
same,TGI,CCRF-CEM leukemia,> 100 µM
same,TGI,COLO 205 colon,> 100 µM
same,TGI,RXF 393 renal,> 100 µM
same,TGI,SR leukemia,97 µM
same,TGI,HOP-62 NSCLC,> 100 µM
same,TGI,SN12C renal,> 100 µM
same,TGI,NCI-H226 lung,> 100 µM
same,TGI,MALME-3M melanoma,> 100 µM
same,TGI,OVCAR-5 ovarian,> 100 µM
same,TGI,M14 melanoma,> 100 µM
same,TGI,UO-31 renal,> 100 µM
same,TGI,NCI/ADR-RES ovarian,> 100 µM
same,TGI,SK-OV-3 ovarian,> 100 µM
same,TGI,SF-295 CNS,> 100 µM
same,TGI,NCI-H522 lung,> 100 µM
same,TGI,SNB-19 CNS,> 100 µM
same,TGI,K-562 leukemia,> 100 µM
same,TGI,SK-MEL-5 melanoma,> 100 µM
same,TGI,MOLT-4 leukemia,> 100 µM
same,TGI,OVCAR-3 ovarian,> 100 µM
same,TGI,UACC-257 melanoma,> 100 µM
same,TGI,T-47D breast,> 100 µM
CC(C)NC(=O)OCc1c(COC(=O)NC(C)C)c(-c2cc[n+](COC(=O)Cc3ccccc3)cc2)n2c1CCC2,TGI,A549 NSCLC,> 100 µM
same,TGI,SW-620 colon,> 100 µM
same,TGI,KM12 colon,> 100 µM
same,TGI,HCC-2998 colon,> 100 µM
same,TGI,TK-10 renal,> 100 µM
same,TGI,HCT-15 colon,> 100 µM
same,TGI,OVCAR-4 ovarian,> 100 µM
same,TGI,SK-MEL-28 melanoma,> 100 µM
same,TGI,HS 578T breast,> 100 µM
same,TGI,786-0 renal,> 100 µM
same,TGI,DU-145 prostate,> 100 µM
same,TGI,MDA-MB-435,> 100 µM
same,TGI,BT-549 breast,> 100 µM
same,TGI,HT29 colon,> 100 µM
same,TGI,PC-3 prostate,> 100 µM
same,TGI,UACC-62 melanoma,> 100 µM
same,TGI,U251 CNS,> 100 µM
same,TGI,IGROV1 ovarian,> 100 µM
same,TGI,SNB-75 CNS,> 100 µM
same,TGI,SK-MEL-2 melanoma,> 100 µM
same,TGI,MDA-N,> 100 µM
same,TGI,HOP-92 NSCLC,> 100 µM
same,TGI,EKVX NSCLC,> 100 µM
same,TGI,NCI-H460 lung,> 100 µM
same,TGI,MCF7 breast,> 100 µM
same,TGI,HCT-116 colon,> 100 µM
same,TGI,ACHN renal,> 100 µM
same,TGI,SF-268 CNS,> 100 µM
same,TGI,MDA-MB-231 breast,> 100 µM
same,TGI,CAKI-1 renal,> 100 µM
same,TGI,A498 renal,> 100 µM
same,TGI,RPMI-8226 leukemia,> 100 µM
same,TGI,OVCAR-8 ovarian,> 100 µM
same,TGI,LOX IMVI melanoma,> 100 µM
same,TGI,CCRF-CEM leukemia,> 100 µM
same,TGI,COLO 205 colon,> 100 µM
same,TGI,SF-539 CNS,> 100 µM
same,TGI,RXF 393 renal,> 100 µM
same,TGI,SR leukemia,> 100 µM
same,TGI,HOP-62 NSCLC,> 100 µM
same,TGI,NCI-H23 lung,> 100 µM
same,TGI,SN12C renal,> 100 µM
same,TGI,NCI-H226 lung,> 100 µM
same,TGI,MALME-3M melanoma,> 100 µM
same,TGI,OVCAR-5 ovarian,> 100 µM
same,TGI,M14 melanoma,> 100 µM
same,TGI,HL-60(TB) leukemia,> 100 µM
same,TGI,UO-31 renal,> 100 µM
same,TGI,NCI/ADR-RES ovarian,> 100 µM
same,TGI,SK-OV-3 ovarian,> 100 µM
same,TGI,SF-295 CNS,> 100 µM
same,TGI,NCI-H522 lung,> 100 µM
same,TGI,SNB-19 CNS,> 100 µM
same,TGI,K-562 leukemia,> 100 µM
same,TGI,SK-MEL-5 melanoma,> 100 µM
same,TGI,MOLT-4 leukemia,> 100 µM
same,TGI,OVCAR-3 ovarian,> 100 µM
same,TGI,UACC-257 melanoma,> 100 µM
same,TGI,T-47D breast,> 100 µM
CC(C)C1CCC(=O)CC1CCCCC1CC(=O)CC1O[Si](C)(C)C(C)(C)C (configuration not stated),TGI,A549 NSCLC,32.9 µM
same,TGI,SW-620 colon,> 26.5 µM
same,TGI,KM12 colon,7.93 µM
same,TGI,HCC-2998 colon,19.3 µM
same,TGI,TK-10 renal,23.4 µM
same,TGI,HCT-15 colon,21.4 µM
same,TGI,OVCAR-4 ovarian,29.3 µM
same,TGI,SK-MEL-28 melanoma,19.7 µM
same,TGI,HS 578T breast,9.89 µM
same,TGI,786-0 renal,17.1 µM
same,TGI,DU-145 prostate,39.1 µM
same,TGI,MDA-MB-435,10.9 µM
same,TGI,BT-549 breast,13.3 µM
same,TGI,HT29 colon,10.3 µM
same,TGI,PC-3 prostate,43.1 µM
same,TGI,UACC-62 melanoma,17.1 µM
same,TGI,U251 CNS,5.84 µM
same,TGI,IGROV1 ovarian,8.24 µM
same,TGI,SNB-75 CNS,26 µM
same,TGI,SK-MEL-2 melanoma,24.5 µM
same,TGI,MDA-N,21.1 µM
same,TGI,HOP-92 NSCLC,13.1 µM
same,TGI,EKVX NSCLC,36.1 µM
same,TGI,NCI-H460 lung,> 100 µM
same,TGI,MCF7 breast,27.2 µM
same,TGI,HCT-116 colon,15.3 µM
same,TGI,ACHN renal,15.2 µM
same,TGI,SF-268 CNS,7.74 µM
same,TGI,MDA-MB-231 breast,40.5 µM
same,TGI,CAKI-1 renal,19.4 µM
same,TGI,A498 renal,27.1 µM
same,TGI,RPMI-8226 leukemia,5.6 µM
same,TGI,OVCAR-8 ovarian,13 µM
same,TGI,LOX IMVI melanoma,9.28 µM
same,TGI,CCRF-CEM leukemia,> 22.2 µM
same,TGI,COLO 205 colon,21.5 µM
same,TGI,SF-539 CNS,24.8 µM
same,TGI,RXF 393 renal,27.8 µM
same,TGI,SR leukemia,> 35.1 µM
same,TGI,HOP-62 NSCLC,33.7 µM
same,TGI,NCI-H23 lung,33.7 µM
same,TGI,SN12C renal,22.3 µM
same,TGI,NCI-H226 lung,15.5 µM
same,TGI,MALME-3M melanoma,19.1 µM
same,TGI,OVCAR-5 ovarian,26.2 µM
same,TGI,M14 melanoma,43.4 µM
same,TGI,UO-31 renal,20.2 µM
same,TGI,NCI/ADR-RES ovarian,21.2 µM
same,TGI,SK-OV-3 ovarian,25.7 µM
same,TGI,SF-295 CNS,25.5 µM
same,TGI,NCI-H522 lung,4.02 µM
same,TGI,SNB-19 CNS,13.2 µM
same,TGI,K-562 leukemia,> 34.9 µM
same,TGI,SK-MEL-5 melanoma,12.6 µM
same,TGI,MOLT-4 leukemia,5.5 µM
same,TGI,OVCAR-3 ovarian,> 47.5 µM
same,TGI,UACC-257 melanoma,21.7 µM
same,TGI,T-47D breast,46.9 µM
